Measured values: article PMC8434491, “Targeting the Integrated Stress Response Kinase GCN2 to Modulate Retroviral Integration” (Molecules, 2021)

Tests used:
IN–GCN2 interaction = biological target: T1, IN–GCN2 interaction (UniProt P04585+Q9P2K8); test: IN–GCN2 interaction assay (AlphaLISA); assay type: binding, HIV-1 IN / human GCN2; conditions: pilot screen, single dose of 100 µM; read-out: inhibition of the IN–GCN2 interaction signal
T1 construct: expressed as a truncated version (192-1024) in fusion after a glutathione S-transferase tag; Recombinant full-length IN was expressed in E. coli BL21 pLys; purchased SignalChem (GCN2); IN made in house in E. coli BL21 pLys E12-11G; host or cells: E. coli BL21 pLys (IN)
Source text: We developed an in vitro plate-based assay to monitor the interaction between GCN2 and IN using the AlphaLISA technology (Figure 1). Taking advantage of the tags present on each recombinant protein (6xHis for IN prepared “in-house”, and GST for GCN2 commercially available), we used specific beads that fluoresce only when they are in close proximity (<200 nm). The signal obtained (light count) is directly proportional to the binding of IN to GCN2 (homogenous solution assay at steady state).
IN–GCN2 interaction assay. Protein–protein interactions were monitored using the AlphaLISA technology (Perkin Elmer) taking advantage of the GST and 6xHis tags of GCN2 and IN, respectively. Accordingly, AlphaScreen GSH Donor beads and AlphaLISA Nickel Acceptor beads were used (Perkin Elmer). Reactions were carried out at room temperature by incubating GCN2 with drugs or DMSO for 5 min before addition of AlphaLISA Nickel Acceptor beads. After 5 min, IN was added to the reaction mixture and incubated for 20 min before adding the AlphaScreen GSH Donor beads. This interaction assay was performed in conditions similar to the in vitro phosphorylation assay, already described, using 25 nM GCN2 and 700 nM (except indicated otherwise) in a reaction buffer containing 50 mM Tris-HCl pH 7.5, 40 mM NaCl, 1 mM dithiothreitol (DTT), 0.05% Tween 20, 0.1% bovine serum albumin (BSA), 10 µg/mL of each donor and acceptor beads. Alpha signal was measured using an EnSight plate reader (Perkin Elmer) 120 min after the addition of the latest component of the reaction (unless indicated otherwise).

[1] = biological target: T2, IN's phosphorylation catalyzed by GCN2 (Homo sapiens, UniProt Q9P2K8); test: In vitro phosphorylation assay: phosphorylation of IN catalyzed by GCN2; assay type: biochemical, human GCN2 / HIV-1 IN
T2 construct: expressed as a truncated version (192-1024) in fusion after a glutathione S-transferase tag; purchased SignalChem (GCN2); IN made in house in E. coli BL21 pLys E12-11G; host or cells: E. coli BL21 pLys (IN)
T2 sequence (Q9P2K8 192-1024): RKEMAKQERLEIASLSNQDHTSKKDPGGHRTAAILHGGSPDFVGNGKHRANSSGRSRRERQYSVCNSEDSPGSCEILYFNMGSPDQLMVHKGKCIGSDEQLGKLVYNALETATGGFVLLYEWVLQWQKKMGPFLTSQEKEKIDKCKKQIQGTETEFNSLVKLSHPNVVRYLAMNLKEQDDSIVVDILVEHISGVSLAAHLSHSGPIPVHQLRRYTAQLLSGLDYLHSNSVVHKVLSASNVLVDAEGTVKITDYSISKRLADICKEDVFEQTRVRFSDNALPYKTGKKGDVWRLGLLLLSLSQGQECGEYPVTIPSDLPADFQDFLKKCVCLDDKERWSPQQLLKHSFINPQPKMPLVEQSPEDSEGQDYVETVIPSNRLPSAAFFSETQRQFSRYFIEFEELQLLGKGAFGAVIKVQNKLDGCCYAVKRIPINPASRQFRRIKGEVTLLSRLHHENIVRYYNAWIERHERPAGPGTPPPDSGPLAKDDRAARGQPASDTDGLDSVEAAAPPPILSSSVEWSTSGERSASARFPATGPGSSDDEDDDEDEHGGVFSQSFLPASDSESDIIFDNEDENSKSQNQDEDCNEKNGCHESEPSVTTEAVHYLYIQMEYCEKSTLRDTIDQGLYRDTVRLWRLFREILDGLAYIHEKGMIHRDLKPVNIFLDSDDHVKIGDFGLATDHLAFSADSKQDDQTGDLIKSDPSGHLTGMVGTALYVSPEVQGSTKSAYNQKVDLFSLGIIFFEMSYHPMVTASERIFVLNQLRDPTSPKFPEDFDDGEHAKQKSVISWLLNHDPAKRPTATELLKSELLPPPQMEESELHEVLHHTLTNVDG
Description: Enzymes. GCN2 was purchased from SignalChem (EIF2AK4, cat. #E12-11G). […] Recombinant full-length IN was expressed in E. coli BL21 pLys (IPTG induction) and purified on a nickel chelating column, as described. Integrity and purity were checked by direct Coomassie coloration of elution fractions on SDS-PAGE before dialysis to remove imidazole.
In vitro phosphorylation assay. […] Reactions (20 µL) were stopped after a 60 min incubation at 30 °C by adding 10 µL of loading buffer [80 mM Tris-HCl pH 6.8, 100 mM DTT, 10% glycerol, 1% sodium dodecyl sulfate (SDS) and 0.05% bromophenol blue]. Samples were then loaded onto a 10% denaturating SDS-PAGE. After protein separation (120 V for 120 min) the gel was stained using Coomassie Brilliant Blue R-250. Autoradiography was performed using an imaging plate (Fujifilm, Tokyo, Japan) and images were obtained with a FLA-5000 Imaging System (Fujifilm).

For O=C1c2c(O)ccc(O)c2C(=O)c2c(NCCNCCO)ccc(NCCNCCO)c21 [NSC279836, Mitoxantrone], the inhibition at 100 µM (IN–GCN2 interaction) was 99.4%, the “concentration giving full inhibition of IN phosphorylation” value ([1]; serial dilutions from 300 µM to 137 nM) was 300 µM and the “apparent IC50, IN phosphorylation” value ([1]; serial dilutions from 300 µM to 137 nM, in words) was “low micromolar range”. It also gave an inhibition at 100 µM ([1]; single dose of 100 µM, compared to DMSO, read-out: decrease (inhibition) in IN phosphorylation) of about 65%.
